Reference: patent US7875600B2, “Pyrimidine compounds as purine receptor antagonist” (Vernalis (R&D) Limited, priority 2004, dated 2011)

What was measured:
[1] = target: human adenosine A2A receptors (Homo sapiens, UniProt P29274); test: Binding affinities at hA2A receptors, displacement of [3H]-CGS 21680; conditions: human adenosine A2A receptor, [3H]-CGS 21680 displacement
Excerpt: Adenosine Receptor Binding Binding Affinities at hA2A Receptors
The compounds were examined in an assay measuring in vitro binding to human adenosine A2A receptors by determining the displacement of the adenosine A2A receptor selective radioligand [^3H]-CGS 21680 using standard techniques.

[2] = system: haloperidol-induced deficits in locomotor activity in mice; test: Haloperidol-induced hypolocomotion model; format: in vivo; conditions: oral, dose of 30 mg/kg
Excerpt: Haloperidol-Induced Hypolocomotion Model
This approach is also considered a valid method for screening drugs with potential antiparkinsonian effects. Thus, the ability of novel adenosine antagonists to block haloperidol-induced deficits in locomotor activity in mice can be used to assess both in vivo and potential antiparkinsonian efficacy.
Female TO mice (25-30 g) obtained from Harlan, UK, are used for all experiments. Animals are housed in groups of 8 [cage size—40 (width)×40 (length)×20 (height) cm] under 12 h light/dark cycle (lights on 08:00 hr), in a temperature (20±2° C.) and humidity (55±15%) controlled environment. Animals have free access to food and water, and are allowed at least 3 days to acclimatize after delivery before experimental use.
Liquid injectable haloperidol (1 ml Serenance ampoules from Baker Norton, Harlow, Essex, each containing haloperidol BP 5 mg) are diluted to a final concentration of 0.02 mg/ml using saline. Test compounds are typically prepared as aqueous suspensions in 1% methyl cellulose. All compounds are administered orally in a volume of 10 ml/kg.
1.5 h before testing, mice are administered 0.2 mg/kg haloperidol, a dose that reduces baseline locomotor activity by at least 50%. […] Horizontal locomotor activity is determined by placing the cages within a frame containing a 4×7 array of photocells linked to a computer, which tabulates beam breaks. […]

[3] = system: cataleptic responses; conditions: cited from earlier work
[4] = system: Parkinsonian patients; conditions: 15 Parkinsonian patients, up to 12 weeks, 150 mg/day oral; cited from earlier work

Chain of human adenosine A2A receptors (P29274 whole entry): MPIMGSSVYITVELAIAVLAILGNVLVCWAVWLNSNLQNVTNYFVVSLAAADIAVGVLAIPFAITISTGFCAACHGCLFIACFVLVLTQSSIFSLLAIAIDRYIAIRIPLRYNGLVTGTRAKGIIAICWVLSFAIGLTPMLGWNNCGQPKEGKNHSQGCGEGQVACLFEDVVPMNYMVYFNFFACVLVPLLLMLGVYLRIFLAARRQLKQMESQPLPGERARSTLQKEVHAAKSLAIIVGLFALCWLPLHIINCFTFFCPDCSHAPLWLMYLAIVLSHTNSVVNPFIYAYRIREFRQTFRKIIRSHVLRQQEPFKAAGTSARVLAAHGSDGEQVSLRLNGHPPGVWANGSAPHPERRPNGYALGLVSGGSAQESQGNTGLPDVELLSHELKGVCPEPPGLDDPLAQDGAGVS

SMILES: Nc1nc(C(=O)NCc2ccccc2F)cc(-c2ccco2)n1 [Example 1, 2-Amino-N-(2-fluorobenzyl)-6-(2-furyl)pyrimidine-4-carboxamide]
- Ki [1]: < 50 nM
- activity in haloperidol-induced hypolocomotion model [2]: orally active

SMILES: COCc1cccc(CNC(=O)c2nc(N)nc(-c3ccc(C)o3)c2Br)n1 [Example 117, 2-Amino-5-bromo-N-(6-methoxymethylpyridin-2-ylmethyl)-6-(5-methyl-2-furyl)pyrimidine-4-carboxamide]
- melting point: 193.5 to 195.1 °C

SMILES: CCCn1c(=O)c2c(nc(/C=C/c3ccc(OC)c(OC)c3)n2C)n(CCC)c1=O [KF 17837, (E)-8-(3,4-dimethoxystyryl)-1,3-dipropyl-7-methylxanthine]
- anticataleptic effects of a subthreshold dose of L-DOPA plus benserazide ([3]; in vivo): potentiated
- catalepsy induced by haloperidol and reserpine ([3]; in vivo): reduced
- cataleptic responses induced by intracerebroventricular CGS 21680 ([3]; oral administration): significantly ameliorated

SMILES: Cn1c(=O)c2[nH]cnc2n(C)c1=O [theophylline, 1,3-dimethylxanthine]
- mean objective disability scores [4]: significant improvements
